Legend:
Assay type in all cases: in vivo
barnyardgrass [1] = assay: Test Example 1: herbicidal effects in preemergence treatment under submerged conditions; settings: dose 2.52 g/a
Text: (§1) Test on the Herbicidal Effects in Preemergence Treatment on Weeds Under Submerged Conditions
(§2) Alluvial soil was put in 1/30000-are styrol cups and admixed with water so that it was submerged at a depth of 4 cm. In each cup, seeds of barnyardgrass, bulrush and ducksalad were sown together, and rice seedlings at the 2.5-leaf stage were transplanted. On the same day as the seeding, emulsifiable concentrates containing compounds of the present invention formulated in accordance with Formulation Example 2 were applied to the water surfaces at predetermined doses after diluted with water. The cups were placed in a greenhouse at 25 to 30° C. to grow the plants. Three weeks after the application, the herbicidal effects against various plants were determined on the following evaluation scale.
(§3) 5 mortality of 90% or above (nearly complete death)
(§4) 4 mortality of at least 70% and less than 90%
(§5) 3 mortality of at least 40% and less than 70%
(§6) 2 mortality of at least 20% and less than 40%
(§7) 1 mortality of at least 5% and less than 20%
(§8) 0 mortality of less than 5% (almost ineffective)
(§9) A: barnyardgrass, B: bulrush, C: ducksalad, D: large crabgrass, E: giant foxtail, F: wild oat, G: water foxtail, H: Italian ryegrass, I: velvetleaf, J: common ragweed, K: redroot pigweed, L: common lambsquater, M: posumbu knotweed, N: common chickweed, O: beadstraw, a: transplanted rice, b: corn, c: soybean, d: direct-seeded rice, e: wheat, f: sugar beet.
(§10) The doses (g/a) represents the amounts in g per 1 are (a) applied after adjustment of concentration adjustment.

bulrush [2] = assay: as above; settings: dose 2.52 g/a
Text: as §1, §2, §3, §4, §5, §6, §7, §8, §9, §10

ducksalad [3] = assay: as above; settings: dose 2.52 g/a
Text: as §1, §2, §3, §4, §5, §6, §7, §8, §9, §10

transplanted rice = assay: Test Example 1: preemergence treatment under submerged conditions, effect on crop; settings: dose 2.52 g/a
Text: as §1, §2, §3, §4, §5, §6, §7, §8, §9, §10

barnyardgrass [4] = assay: Test Example 2: herbicidal effects during the vegetation period under submerged conditions; settings: treatment during the vegetation period under submerged conditions; dose 2.52 g/a
Procedure: (§11) Test on the Herbicidal Effects on Weeds During the Vegetation Period Under Submerged Conditions
(§12) Alluvial soil was put in 1/30000-are styrol cups and admixed with water so that it was submerged at a depth of 4 cm. In each cup, seeds of barnyardgrass, bulrush and ducksalad were sown together, and the cups were placed in a greenhouse at 25 to 30° C. to grow the plants. When the barnyardgrass, bulrush and ducksalad reached the 1- or 2-leaf stage, emulsifiable concentrates containing compounds of the present invention formulated in accordance with Formulation Example 2 were applied to the water surfaces at predetermined doses after diluted with water. Three weeks after the application, the herbicidal effects against various plants were determined on the same evaluation scale as in Test Example 1.
as §9, §10

bulrush [5] = assay: as above; settings: treatment during the vegetation period under submerged conditions; dose 2.52 g/a
Procedure: as §11, §12, §9, §10

ducksalad [6] = assay: as above; settings: treatment during the vegetation period under submerged conditions; dose 2.52 g/a
Procedure: as §11, §12, §9, §10

Italian ryegrass [7] = assay: Test Example 3: herbicidal effects in soil treatment; settings: dose 3.2 g/a
Text: (§13) Test on the Herbicidal Effects in Soil Treatment
(§14) Sterilized diluvial soil was put in plastic boxes with a length of 21 cm, a width of 13 cm and a depth of 7 cm, and seeds of barnyardgrass, large crabgrass, giant foxtail, wild oat, blackgrass, velvetleaf, common ragweed, redroot pigweed, common lambsquater, posumbu knotweed, common chickweed corn, soybean, rice, wheat and sugar beet were sown in spots and covered with an about 1.5 cm-thick soil layer. Emulsifiable concentrates containing compounds of the present invention formulated in accordance with Formulation Example 2 were uniformly applied to the soil surfaces at predetermined doses through a small sprayer after dilute with water. Three weeks after the application, the herbicidal effects against various plants were determined on the same evaluation scale as in Test Example 1.
as §9, §10

barnyardgrass [8] = assay: as above; settings: dose 3.2 g/a
Text: as §13, §14, §9, §10

common chickweed [9] = assay: as above; settings: dose 3.2 g/a
Text: as §13, §14, §9, §10

common lambsquater [10] = assay: as above; settings: dose 3.2 g/a
Text: as §13, §14, §9, §10

common ragweed [11] = assay: as above; settings: dose 3.2 g/a
Text: as §13, §14, §9, §10

giant foxtail [12] = assay: as above; settings: dose 3.2 g/a
Text: as §13, §14, §9, §10

large crabgrass [13] = assay: as above; settings: dose 3.2 g/a
Text: as §13, §14, §9, §10

posumbu knotweed [14] = assay: as above; settings: dose 3.2 g/a
Text: as §13, §14, §9, §10

redroot pigweed [15] = assay: as above; settings: dose 3.2 g/a
Text: as §13, §14, §9, §10

water foxtail [16] = assay: as above; settings: dose 3.2 g/a
Text: as §13, §14, §9, §10

Italian ryegrass [17] = assay: Test Example 4: herbicidal effect in foliage treatment; settings: dose 3.2 g/a, three weeks after the application
Text: (§15) Test on the Herbicidal Effect in Foliage Treatment
as §14, with “chickweed,” for “chickweed”, “The boxes were placed in a greenhouse at 25 to 30° C. to grow the plants. After 14 days, emulsifiable” for “Emulsifiable”, “foliage” for “soil surfaces”, “diluted” for “dilute”
as §9, §10

barnyardgrass [18] = assay: as above; settings: dose 3.2 g/a, three weeks after the application
Text: as §15
as §14, with “chickweed,” for “chickweed”, “The boxes were placed in a greenhouse at 25 to 30° C. to grow the plants. After 14 days, emulsifiable” for “Emulsifiable”, “foliage” for “soil surfaces”, “diluted” for “dilute”
as §9, §10

beadstraw = assay: as above; settings: dose 3.2 g/a, three weeks after the application
Text: as §15
as §14, with “chickweed,” for “chickweed”, “The boxes were placed in a greenhouse at 25 to 30° C. to grow the plants. After 14 days, emulsifiable” for “Emulsifiable”, “foliage” for “soil surfaces”, “diluted” for “dilute”
as §9, §10

common chickweed [19] = assay: as above; settings: dose 3.2 g/a, three weeks after the application
Text: as §15
as §14, with “chickweed,” for “chickweed”, “The boxes were placed in a greenhouse at 25 to 30° C. to grow the plants. After 14 days, emulsifiable” for “Emulsifiable”, “foliage” for “soil surfaces”, “diluted” for “dilute”
as §9, §10

common lambsquater [20] = assay: as above; settings: dose 3.2 g/a, three weeks after the application
Text: as §15
as §14, with “chickweed,” for “chickweed”, “The boxes were placed in a greenhouse at 25 to 30° C. to grow the plants. After 14 days, emulsifiable” for “Emulsifiable”, “foliage” for “soil surfaces”, “diluted” for “dilute”
as §9, §10

common ragweed [21] = assay: as above; settings: dose 3.2 g/a, three weeks after the application
Text: as §15
as §14, with “chickweed,” for “chickweed”, “The boxes were placed in a greenhouse at 25 to 30° C. to grow the plants. After 14 days, emulsifiable” for “Emulsifiable”, “foliage” for “soil surfaces”, “diluted” for “dilute”
as §9, §10

giant foxtail [22] = assay: as above; settings: dose 3.2 g/a, three weeks after the application
Text: as §15
as §14, with “chickweed,” for “chickweed”, “The boxes were placed in a greenhouse at 25 to 30° C. to grow the plants. After 14 days, emulsifiable” for “Emulsifiable”, “foliage” for “soil surfaces”, “diluted” for “dilute”
as §9, §10

large crabgrass [23] = assay: as above; settings: dose 3.2 g/a, three weeks after the application
Text: as §15
as §14, with “chickweed,” for “chickweed”, “The boxes were placed in a greenhouse at 25 to 30° C. to grow the plants. After 14 days, emulsifiable” for “Emulsifiable”, “foliage” for “soil surfaces”, “diluted” for “dilute”
as §9, §10

posumbu knotweed [24] = assay: as above; settings: dose 3.2 g/a, three weeks after the application
Text: as §15
as §14, with “chickweed,” for “chickweed”, “The boxes were placed in a greenhouse at 25 to 30° C. to grow the plants. After 14 days, emulsifiable” for “Emulsifiable”, “foliage” for “soil surfaces”, “diluted” for “dilute”
as §9, §10

redroot pigweed [25] = assay: as above; settings: dose 3.2 g/a, three weeks after the application
Text: as §15
as §14, with “chickweed,” for “chickweed”, “The boxes were placed in a greenhouse at 25 to 30° C. to grow the plants. After 14 days, emulsifiable” for “Emulsifiable”, “foliage” for “soil surfaces”, “diluted” for “dilute”
as §9, §10

velvetleaf = assay: as above; settings: dose 3.2 g/a, three weeks after the application
Text: as §15
as §14, with “chickweed,” for “chickweed”, “The boxes were placed in a greenhouse at 25 to 30° C. to grow the plants. After 14 days, emulsifiable” for “Emulsifiable”, “foliage” for “soil surfaces”, “diluted” for “dilute”
as §9, §10

water foxtail [26] = assay: as above; settings: dose 3.2 g/a, three weeks after the application
Text: as §15
as §14, with “chickweed,” for “chickweed”, “The boxes were placed in a greenhouse at 25 to 30° C. to grow the plants. After 14 days, emulsifiable” for “Emulsifiable”, “foliage” for “soil surfaces”, “diluted” for “dilute”
as §9, §10

Structure (SMILES): CC1(C)CON(Cc2ccccc2NS(=O)(=O)C(F)(F)F)C(=O)O1 [III-10]
- A: barnyardgrass, herbicidal effect (evaluation scale 0-5) (barnyardgrass [1]): 5 (mortality of 90% or above (nearly complete death))
- B: bulrush, herbicidal effect (evaluation scale 0-5) (bulrush [2]): 5 (mortality of 90% or above (nearly complete death))
- C: ducksalad, herbicidal effect (evaluation scale 0-5) (ducksalad [3]): 5 (mortality of 90% or above (nearly complete death))
- a: transplanted rice, effect on crop (evaluation scale 0-5) (transplanted rice): 0 (mortality of less than 5% (almost ineffective))
- A: barnyardgrass, herbicidal effect (evaluation scale 0-5) (barnyardgrass [4]): 5 (mortality of 90% or above (nearly complete death))
- B: bulrush, herbicidal effect (evaluation scale 0-5) (bulrush [5]): 5 (mortality of 90% or above (nearly complete death))
- C: ducksalad, herbicidal effect (evaluation scale 0-5) (ducksalad [6]): 5 (mortality of 90% or above (nearly complete death))
- herbicidal effect, H: Italian ryegrass (Italian ryegrass [7]): 4 (mortality of at least 70% and less than 90%)
- herbicidal effect, A: barnyardgrass (barnyardgrass [8]): 5 (mortality of 90% or above (nearly complete death))
- herbicidal effect, N: common chickweed (common chickweed [9]): 4 (mortality of at least 70% and less than 90%)
- herbicidal effect, L: common lambsquater (common lambsquater [10]): 4 (mortality of at least 70% and less than 90%)
- herbicidal effect, J: common ragweed (common ragweed [11]): 5 (mortality of 90% or above (nearly complete death))
- herbicidal effect, E: giant foxtail (giant foxtail [12]): 4 (mortality of at least 70% and less than 90%)
- herbicidal effect, D: large crabgrass (large crabgrass [13]): 5 (mortality of 90% or above (nearly complete death))
- herbicidal effect, M: posumbu knotweed (posumbu knotweed [14]): 5 (mortality of 90% or above (nearly complete death))
- herbicidal effect, K: redroot pigweed (redroot pigweed [15]): 2 (mortality of at least 20% and less than 40%)
- herbicidal effect, G: water foxtail (water foxtail [16]): 5 (mortality of 90% or above (nearly complete death))
- H: Italian ryegrass, herbicidal effect (Italian ryegrass [17]): 4 (mortality of at least 70% and less than 90%)
- A: barnyardgrass, herbicidal effect (barnyardgrass [18]): 5 (mortality of 90% or above (nearly complete death))
- O: beadstraw, herbicidal effect (beadstraw): 5 (mortality of 90% or above (nearly complete death))
- N: common chickweed, herbicidal effect (common chickweed [19]): 1 (mortality of at least 5% and less than 20%)
- L: common lambsquater, herbicidal effect (common lambsquater [20]): 4 (mortality of at least 70% and less than 90%)
- J: common ragweed, herbicidal effect (common ragweed [21]): 5 (mortality of 90% or above (nearly complete death))
- E: giant foxtail, herbicidal effect (giant foxtail [22]): 1 (mortality of at least 5% and less than 20%)
- D: large crabgrass, herbicidal effect (large crabgrass [23]): 4 (mortality of at least 70% and less than 90%)
- M: posumbu knotweed, herbicidal effect (posumbu knotweed [24]): 5 (mortality of 90% or above (nearly complete death))
- K: redroot pigweed, herbicidal effect (redroot pigweed [25]): 4 (mortality of at least 70% and less than 90%)
- I: velvetleaf, herbicidal effect (velvetleaf): 3 (mortality of at least 40% and less than 70%)
- G: water foxtail, herbicidal effect (water foxtail [26]): 5 (mortality of 90% or above (nearly complete death))

— US20120029187A1, “HALOALKYLSULFONANILIDE DERIVATIVE” (Nissan Chemical Industries, Ltd., priority 2009, published 2012)
